Twelve compounds from PubChem BioAssay AID194 (DTP/NCI, 2004) can be followed below.

Where “and” joins values, the source holds several entries; their conditions need not be identical. Equal values may be shown once. Inconclusive results are not listed.

For this assay, the system named is BDF1 mice, B16 melanoma s.c., survival/tumor T/C. The assay is described as follows: NCI In Vivo Anticancer Drug Screen. Data for tumor model B16 Melanoma (subcutaneous) in B6D2F1 (BDF1) mice. How it is done: The antitumor activity of compounds was measured in mice bearing transplantable tumors. Survival or tumor size were measured and the results are expressed as the measurement made in the treated group (T) divided by the measurement made in the vehicle treated control group (C). The tumor model used in this assay is B16 Melanoma (subcutaneous) in B6D2F1 (BDF1) mice

[1] abbreviates: endpoint: median survival time, dose: 16.0 mg/kg/injection, schedule: Q01DX009 (ip), vehicle: saline, higher = longer survival.
The mark [2] stands for this setting: endpoint: median survival time, dose: 32.0 mg/kg/injection, schedule: Q01DX009 (ip), vehicle: saline, higher = longer survival.
Setting [3] is: endpoint: median survival time, dose: 50.0 mg/kg/injection, schedule: Q01DX009 (ip), vehicle: saline with Tween-80, higher = longer survival.

For `C[C@H](CN1CC(=O)NC(=O)C1)N1CC(=O)NC(=O)C1`, the T/C runs as follows: (endpoint: median survival time, dose: 6.25 mg/kg/injection, schedule: Q04DX003 (ip), vehicle: saline, higher = longer survival) 122 % of control; (endpoint: median survival time, dose: 8.0 mg/kg/injection, schedule: Q01DX009 (ip), vehicle: saline, higher = longer survival) 109 % of control; (endpoint: median survival time, dose: 12.5 mg/kg/injection, schedule: Q04DX003 (ip), vehicle: saline, higher = longer survival) 102 % of control; under setting [1], 119 % of control; (endpoint: median survival time, dose: 16.0 mg/kg/injection, schedule: Q01DX009 (ip), vehicle: water, higher = longer survival) 96 % of control; (endpoint: median survival time, dose: 25.0 mg/kg/injection, schedule: Q04DX003 (ip), vehicle: saline, higher = longer survival) 115 % of control. Moreover, the T/C under setting [2] was 112 % of control; the T/C (endpoint: median survival time, dose: 32.0 mg/kg/injection, schedule: Q01DX009 (ip), vehicle: water, higher = longer survival) was 109 % of control; the T/C (endpoint: median survival time, dose: 50.0 mg/kg/injection, schedule: Q04DX003 (ip), vehicle: saline, higher = longer survival) was 111 % of control; the T/C (endpoint: median survival time, dose: 100.0 mg/kg/injection, schedule: Q04DX003 (ip), vehicle: saline, higher = longer survival) is 115 % of control; the T/C (endpoint: median survival time, dose: 200.0 mg/kg/injection, schedule: Q04DX003 (ip), vehicle: saline, higher = longer survival) is 122 % of control; the T/C (endpoint: median survival time, dose: 800.0 mg/kg/injection, schedule: Q04DX003 (ip), vehicle: saline, higher = longer survival) was 115 % of control.
With `C/C=C(\C)C(=O)O[C@@H]1c2cc3c(cc2-c2c(cc(OC)c(OC)c2OC)[C@@H]2C(=O)OC[C@@H]12)OCO3`, the T/C is, setting by setting: (endpoint: median survival time, dose: 1.25 mg/kg/injection, schedule: Q01DX009 (ip), vehicle: Klucel (hydroxypropylcellulose) (HPC), higher = longer survival) 109 % of control; (endpoint: median survival time, dose: 2.5 mg/kg/injection, schedule: Q01DX009 (ip), vehicle: Klucel (hydroxypropylcellulose) (HPC), higher = longer survival) 101 % of control; (endpoint: median survival time, dose: 5.0 mg/kg/injection, schedule: Q01DX009 (ip), vehicle: Klucel (hydroxypropylcellulose) (HPC), higher = longer survival) 109 % of control; (endpoint: median survival time, dose: 10.0 mg/kg/injection, schedule: Q01DX009 (ip), vehicle: Klucel (hydroxypropylcellulose) (HPC), higher = longer survival) 101 % of control.
As to `N=c1ccn2c(n1)OC1C(O)C(CO)OC12` (configuration not stated), the T/C by setting is: (endpoint: median survival time, dose: 37.5 mg/kg/injection, schedule: Q01DX009 (ip), vehicle: saline, higher = longer survival) 95 % of control; (endpoint: median survival time, dose: 75.0 mg/kg/injection, schedule: Q01DX009 (ip), vehicle: saline, higher = longer survival) 100 % of control; (endpoint: median survival time, dose: 150.0 mg/kg/injection, schedule: Q01DX009 (ip), vehicle: saline, higher = longer survival) 101 % of control.
For the compound `CC[C@](O)(C(=O)O)c1cc2n(c(=O)c1CO)Cc1cc3ccccc3nc1-2`, the T/C was 102 % of control (endpoint: median survival time, dose: 0.25 mg/kg/injection, schedule: Q01DX009 (ip), vehicle: saline, higher = longer survival); 102 % of control (endpoint: median survival time, dose: 0.5 mg/kg/injection, schedule: Q01DX009 (ip), vehicle: saline, higher = longer survival); 104 % of control (endpoint: median survival time, dose: 1.0 mg/kg/injection, schedule: Q01DX009 (ip), vehicle: Klucel (hydroxypropylcellulose) (HPC), higher = longer survival); 104 % of control (endpoint: median survival time, dose: 2.0 mg/kg/injection, schedule: Q01DX009 (ip), vehicle: Klucel (hydroxypropylcellulose) (HPC), higher = longer survival); 98 % of control (endpoint: median survival time, dose: 2.0 mg/kg/injection, schedule: Q01DX009 (ip), vehicle: saline, higher = longer survival).
As to `CC1(C)N=C(N)N=C(N)N1c1ccc(CCC(=O)Nc2ccc(S(=O)(=O)F)cc2)c(Cl)c1`, the T/C by setting is: (endpoint: median survival time, dose: 6.25 mg/kg/injection, schedule: Q01DX009 (ip), vehicle: saline, higher = longer survival) 108 % of control; (endpoint: median survival time, dose: 12.5 mg/kg/injection, schedule: Q01DX009 (ip), vehicle: saline, higher = longer survival) 103 % of control; (endpoint: median survival time, dose: 25.0 mg/kg/injection, schedule: Q01DX009 (ip), vehicle: saline, higher = longer survival) 114 % of control.
As for `CS(=O)(=O)OCCCCOS(C)(=O)=O`, the T/C (endpoint: median survival time, dose: 12.5 mg/kg/injection, schedule: Q01DX009 (ip), vehicle: Klucel (hydroxypropylcellulose) (HPC), higher = longer survival) is 88 % of control and 100 % of control; the T/C (endpoint: median survival time, dose: 25.0 mg/kg/injection, schedule: Q01DX009 (ip), vehicle: saline with Tween-80, higher = longer survival) is 100 % of control; the T/C under setting [3] is 100 % of control; the T/C (endpoint: median tumor weight (est.), dose: 12.5 mg/kg/injection, schedule: Q01DX009 (ip), vehicle: saline with Tween-80, higher = larger tumour) was 162 % of control; the T/C (endpoint: median tumor weight (est.), dose: 25.0 mg/kg/injection, schedule: Q01DX009 (ip), vehicle: Klucel (hydroxypropylcellulose) (HPC), higher = larger tumour) was 97 % of control and 83 % of control; the T/C (endpoint: median tumor weight (est.), dose: 25.0 mg/kg/injection, schedule: Q01DX009 (ip), vehicle: saline with Tween-80, higher = larger tumour) was 88 % of control. The T/C is 61 % of control (endpoint: median tumor weight (est.), dose: 50.0 mg/kg/injection, schedule: Q01DX009 (ip), vehicle: Klucel (hydroxypropylcellulose) (HPC), higher = larger tumour) and 69 % of control (endpoint: median tumor weight (est.), dose: 50.0 mg/kg/injection, schedule: Q01DX009 (ip), vehicle: saline with Tween-80, higher = larger tumour).
Regarding `Cn1c(=O)[nH]c2nncnc2c1=O`, the T/C was 103 % of control (endpoint: median survival time, dose: 0.2 mg/kg/injection, schedule: Q01DX009 (ip), vehicle: water, higher = longer survival); 119 % of control (endpoint: median survival time, dose: 0.4 mg/kg/injection, schedule: Q01DX009 (ip), vehicle: water, higher = longer survival); 99 % of control (endpoint: median survival time, dose: 0.8 mg/kg/injection, schedule: Q01DX009 (ip), vehicle: water, higher = longer survival); 98 % of control and 103 % of control (endpoint: median survival time, dose: 3.12 mg/kg/injection, schedule: Q01DX009 (ip), vehicle: water, higher = longer survival); 117 % of control (endpoint: median survival time, dose: 6.25 mg/kg/injection, schedule: Q01DX009 (ip), vehicle: water, higher = longer survival); 96 % of control and 99 % of control (endpoint: median survival time, dose: 12.5 mg/kg/injection, schedule: Q01DX009 (ip), vehicle: water, higher = longer survival). In addition, the T/C (endpoint: median survival time, dose: 25.0 mg/kg/injection, schedule: Q01DX009 (ip), vehicle: water, higher = longer survival) was 114 % of control.
`COc1cccc2c1C(=O)c1c(O)c3c(c(O)c1C2=O)C[C@@](O)(C(C)=O)C[C@@H]3OC1CC(N)C(O)C(C)O1` (some centres not stated): the T/C runs as follows: (endpoint: median survival time, dose: 0.12 mg/kg/injection, schedule: Q01DX009 (ip), vehicle: saline, higher = longer survival) 87 % of control and 105 % of control; (endpoint: median tumor weight (est.), dose: 0.12 mg/kg/injection, schedule: Q01DX009 (ip), vehicle: saline, higher = larger tumour) 64 % of control; (endpoint: median tumor weight (est.), dose: 0.25 mg/kg/injection, schedule: Q01DX009 (ip), vehicle: saline, higher = larger tumour) 86 % of control and 100 % of control; (endpoint: median tumor weight (est.), dose: 0.5 mg/kg/injection, schedule: Q01DX009 (ip), vehicle: saline, higher = larger tumour) 55 % of control.
Take `N/C(=N\Cl)C(Cl)(Cl)Cl`: the T/C is 102 % of control (endpoint: median survival time, dose: 6.25 mg/kg/injection, schedule: Q01DX009 (ip), vehicle: saline with Tween-80, higher = longer survival); 98 % of control (endpoint: median survival time, dose: 12.5 mg/kg/injection, schedule: Q01DX009 (ip), vehicle: saline with Tween-80, higher = longer survival); 94 % of control under setting [3].
For the compound `COc1cccc2c1C(=O)c1c(O)c3c(c(O)c1C2=O)CC(O)(C(C)=O)CC3OC1CC(N)C(O)C(C)O1` (configuration not stated), the T/C (endpoint: median survival time, dose: 5.8 mg/kg/injection, schedule: Q01DX009 (ip), vehicle: saline, higher = longer survival) was 107 % of control; the T/C (endpoint: median survival time, dose: 11.7 mg/kg/injection, schedule: Q01DX009 (ip), vehicle: saline, higher = longer survival) was 103 % of control; the T/C (endpoint: median survival time, dose: 23.4 mg/kg/injection, schedule: Q01DX009 (ip), vehicle: saline, higher = longer survival) was 120 % of control.
Regarding `CN[C@H]1CCc2cc(OC)c(OC)c(OC)c2-c2ccc(OC)c(=O)cc21`, the T/C (endpoint: median survival time, dose: 1.25 mg/kg/injection, schedule: Q01DX009 (ip), vehicle: saline, higher = longer survival) was 109 % of control; the T/C (endpoint: median survival time, dose: 2.5 mg/kg/injection, schedule: Q01DX009 (ip), vehicle: saline, higher = longer survival) is 95 % of control; the T/C (endpoint: median survival time, dose: 10.0 mg/kg/injection, schedule: Q01DX009 (ip), vehicle: saline, higher = longer survival) is 111 % of control.
For `O=NN(CCCl)C(=O)NC1CCCCC1`, the T/C (endpoint: median survival time, dose: 4.0 mg/kg/injection, schedule: Q01DX009 (ip), vehicle: saline, higher = longer survival) was 115 % of control; the T/C (endpoint: median survival time, dose: 5.18 mg/kg/injection, schedule: Q01DX007 (ip), vehicle: Klucel (hydroxypropylcellulose) (HPC), higher = longer survival) is 103 % of control; the T/C (endpoint: median survival time, dose: 8.64 mg/kg/injection, schedule: Q01DX007 (ip), vehicle: Klucel (hydroxypropylcellulose) (HPC), higher = longer survival) is 88 % of control; the T/C (endpoint: median survival time, dose: 12.0 mg/kg/injection, schedule: Q01DX001 (ip), vehicle: Klucel (hydroxypropylcellulose) (HPC), higher = longer survival) is 111 % of control and 112 % of control and 116 % of control; the T/C (endpoint: median survival time, dose: 14.4 mg/kg/injection, schedule: Q01DX007 (ip), vehicle: Klucel (hydroxypropylcellulose) (HPC), higher = longer survival) was 124 % of control; the T/C under setting [1] was 175 % of control. The T/C is, setting by setting: under setting [2], 105 % of control; (endpoint: median tumor weight (est.), dose: 8.0 mg/kg/injection, schedule: Q01DX009 (ip), vehicle: Klucel (hydroxypropylcellulose) (HPC), higher = larger tumour) 28 % of control and 47 % of control; (endpoint: median tumor weight (est.), dose: 12.5 mg/kg/injection, schedule: Q01DX001 (ip), vehicle: Klucel (hydroxypropylcellulose) (HPC), higher = larger tumour) 96 % of control and 110 % of control; (endpoint: median tumor weight (est.), dose: 16.0 mg/kg/injection, schedule: Q01DX009 (ip), vehicle: Klucel (hydroxypropylcellulose) (HPC), higher = larger tumour) 27 % of control; (endpoint: median tumor weight (est.), dose: 50.0 mg/kg/injection, schedule: Q01DX001 (ip), vehicle: Klucel (hydroxypropylcellulose) (HPC), higher = larger tumour) 21 % of control; (endpoint: median tumor weight (est.), dose: 100.0 mg/kg/injection, schedule: Q01DX001 (ip), vehicle: Klucel (hydroxypropylcellulose) (HPC), higher = larger tumour) 38 % of control.
